Test results published in patent US20210078958A1, “QUINAZOLINE DERIVATIVE AND USE THEREOF” (MEDSHINE DISCOVERY INC., priority 2017, published 2021).
pIC50: −log10 of the molar value.

How the values were obtained:
[1] = molecular target: HER4 (ErbB4) (Homo sapiens, UniProt Q15303); test: in vitro enzyme activity, HER4 (ErbB4); format: biochemical; settings: human ErbB4, [γ-33P]ATP, poly(Glu, Tyr) substrate
Description: The purpose of this assay is to detect the in vitro inhibitory activity of compounds on HER1 (ErbB1), HER2 (ErbB2), and HER4 (ErbB4). The enzymes used in this assay are human ErbB1, ErbB2 and ErbB4. Eurofins Pharma Discovery Service provided the method for activity detection.
Steps and Method of the Assay (96-Well Plate):
A buffer solution of the test compounds in a dilution of 5-fold (5 μL), polypeptide substrate poly(Glu, Tyr) (4:1) (2.5 μL), ErbB (4-20 ng, 2.5 μL), MnCl2 (50 mM, 1.25 μL), dH2O (3.75 μL), and [γ-^33P]ATP (10 μL) were added, and incubated at 30° C. for 10 minutes. The reaction was terminated by adding 3% phosphoric acid. 10 μL of the sample was taken and transferred to Filtermate A. The filter disc was washed 3 times with 75 mM phosphoric acid and once with methanol. The filter disc was transferred to a sealed plastic bag and the scintillation mixture (4 mL) was added. The intensity of the emitted photon was detected by a scintillation luminescence counter. The CPM (times/min) of the enzyme sample was compared with the CPM of the internal control sample. The level of photon intensity reflected the degree of the tyrosine kinase activity.

[2] = tested on: BT-474 cell; test: inhibitory activity on cell proliferation (Cell-Titer-Glo), BT-474; format: cell-based; settings: Homo sapiens, BT-474, 72 h; incubation for 3 days, Cell-Titer-Glo
From the text: (§1) Purpose of the assay: to detect the inhibitory activity of the test compounds on cell proliferation.
(§2) Principle of the assay: the luciferase in a Cell-Titer-Glo reagent produces oxidized luciferin with luciferin, oxygen and ATP as reaction substrates, and releases energy in the form of light. Since the luciferase reaction requires ATP, the total amount of light generated by the reaction is proportional to the total amount of ATP that reflects cell viability.
(§3) Cell Titer-Glo cell viability assay kit with luminescence (Promega #G7573)
(§4) According to the schematic diagram of the cell seed plate, cells were seeded in a 384- or 96-well plate at a density of 1000 cells per well and 25 μL per well, and 25 μL of PBS was added to the wells near edge of the place where no cells were seeded.
(§5) (1) The stock solution of the compounds has a concentration of 10 mM, and the compounds were diluted with DMSO to an initial concentration of 4 mM. The compounds were added to the plate with stock solution of compounds, 9 μL per well.
(§6) (2) The compounds were diluted with an ECHO liquid workstation, where 125 nL of compounds were added to each well of the cell plate, 125 nL of DMSO was added to each of the cell well in columns 2 and 23, and 125 nL of DMSO was added to each PBS well in columns 1 and 24.
(§7) 2.3 After addition of the compounds, the cell plate was centrifuged at 1000 rpm for 1 min, and then placed in a 37° C., 5% CO2 incubator for incubation for 3 days.
(§8) The cell plate was taken out from the incubator and equilibrated at room temperature for 30 minutes. 25 μL of Cell-Titer-Glo reagent was added to each well, shaken for one minute to allow well mixed, and centrifuged at 1000 rpm for 1 minute. After 10 minutes, the plate was read on PerkinElmer Envision, and the […] reading time was set to 0.2 second.

[3] = tested on: OE21 cell; test: inhibitory activity on cell proliferation (Cell-Titer-Glo), OE21; format: cell-based; settings: Homo sapiens, OE21, 72 h, incubation for 3 days
From the text: as §1, §2, §3, §4, §5, §6, §7, §8

[4] = molecular target: T1, CYP2C9 (Homo sapiens, UniProt P11712); test: inhibition of CYP enzyme activity in human liver microsome, CYP2C9; format: in vitro ADME
T1 construct: in the assay of CYP enzyme activity in human liver microsome; from tissue; host or cells: human liver microsome
T1 sequence (P11712 whole entry): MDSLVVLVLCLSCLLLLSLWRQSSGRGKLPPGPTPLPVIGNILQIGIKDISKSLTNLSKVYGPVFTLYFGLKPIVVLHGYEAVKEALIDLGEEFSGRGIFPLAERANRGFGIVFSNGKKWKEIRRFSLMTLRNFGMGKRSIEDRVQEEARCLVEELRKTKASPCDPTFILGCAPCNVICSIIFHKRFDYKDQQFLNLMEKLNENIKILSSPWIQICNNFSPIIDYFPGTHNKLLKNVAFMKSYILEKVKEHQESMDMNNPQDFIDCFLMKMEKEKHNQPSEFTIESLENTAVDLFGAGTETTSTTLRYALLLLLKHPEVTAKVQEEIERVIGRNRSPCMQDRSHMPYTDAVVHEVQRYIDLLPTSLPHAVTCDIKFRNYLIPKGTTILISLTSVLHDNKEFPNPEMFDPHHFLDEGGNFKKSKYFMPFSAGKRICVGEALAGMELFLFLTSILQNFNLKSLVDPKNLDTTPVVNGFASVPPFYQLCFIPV
From the text: (§9) The results of the compounds disclosed herein and the reference compound Poziotinib in the assay of CYP enzyme activity in human liver microsome were shown in the following table (Table 8).

[5] = tested on: subcutaneous xenograft tumor of human gastric cancer NCI-N87 cells; test: Assay Example 5: in vivo pharmacodynamics, NCI-N87 xenograft; set-up: species or system BALB/c nude mouse; settings: 0.5 mg/kg
Description: Purpose of the assay: to evaluate the in vivo efficacy of test compounds disclosed herein on subcutaneous xenograft tumor of human gastric cancer NCI-N87 cells in a BALB/c nude mouse model.
Animals of the assay: female BALB/c nude mice, 6-8 weeks old, weighing 18-22 grams; supplier: shanghai sippr bk laboratory animals Ltd.
Human gastric cancer NCI-N87 cells were cultured in monolayer in vitro. The culture conditions were RPMI-1640 medium plus 10% fetal bovine serum, 100 U/mL penicillin, 100 μg/mL streptomycin, 37° C., 5% CO2. The passaging was performed by conventional digestion with trypsin-EDTA twice a week. When the cell saturation was 80%-90%, the cells were collected, counted and inoculated.
0.2 mL (10×10^6) of NCI-N87 cells (PBS+Matrigel, 1:1) were inoculated subcutaneously on the right back of each mouse. When the average tumor volume reached 156 mm^3, administration to each group was started.
The test compounds were formulated into a 0.05 mg/mL clear solution in the solvents of 10% NMP (N-methylpyrrolidone)+10% ethylene glycol stearate+80% water.
The assay index is to investigate whether tumor growth is inhibited, delayed or cured. Tumor diameter was measured twice a week with a vernier caliper. The calculation formula of tumor volume is: V=0.5a×b^2, wherein a and b represent the long and short diameters of tumor, respectively.
The antitumor efficacy of the compounds were evaluated by TGI (%) or tumor proliferation rate T/C (%). TGI (%) reflects the tumor growth inhibition rate. TGI (%) is calculated as follows: TGI (%)=[1−(average tumor volume at the end of administration for a certain treatment group−average tumor volume at the beginning of administration for this treatment group)/(average tumor volume at the end of treatment for a solvent control group−average tumor volume at the beginning of administration for this solvent control group)]×100%.
Tumor proliferation rate T/C (%): the calculation formula is as follows: T/C (%)=average tumor volume at the end of administration for a certain treatment group/average tumor volume at the end of treatment for the solvent control group×100%.
Statistical analysis included the mean and standard error (SEM) of tumor volume at each time point in each group (See Table 5-1 for specific data). […] The comparison between two groups was analyzed by T-test, and the comparison among three or more groups was analyzed by one-way ANOVA. […] All data analysis was carried out with SPSS 17.0. p<0.05 was considered a significant difference.

[6] = molecular target: T2, CYP2D6 (Homo sapiens, UniProt P10635); test: inhibition of CYP enzyme activity in human liver microsome, CYP2D6; format: in vitro ADME
T2 construct: in the assay of CYP enzyme activity in human liver microsome; from tissue; host or cells: human liver microsome
T2 sequence (P10635 whole entry): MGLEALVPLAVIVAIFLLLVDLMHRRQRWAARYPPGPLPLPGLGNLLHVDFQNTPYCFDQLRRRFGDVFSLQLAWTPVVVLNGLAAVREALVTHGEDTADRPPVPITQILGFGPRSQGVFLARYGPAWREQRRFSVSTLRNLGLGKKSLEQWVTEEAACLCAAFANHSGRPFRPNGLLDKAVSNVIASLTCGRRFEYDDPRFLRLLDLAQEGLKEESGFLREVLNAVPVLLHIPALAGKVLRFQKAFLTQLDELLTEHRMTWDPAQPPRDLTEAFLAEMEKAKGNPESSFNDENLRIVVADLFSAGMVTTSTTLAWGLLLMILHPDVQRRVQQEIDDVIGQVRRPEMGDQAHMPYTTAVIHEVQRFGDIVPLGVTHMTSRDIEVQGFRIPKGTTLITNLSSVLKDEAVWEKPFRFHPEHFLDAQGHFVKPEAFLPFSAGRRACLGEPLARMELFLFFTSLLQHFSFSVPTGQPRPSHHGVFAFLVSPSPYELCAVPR
From the text: as §9

Chain of HER4 (ErbB4) (Q15303 26-1308): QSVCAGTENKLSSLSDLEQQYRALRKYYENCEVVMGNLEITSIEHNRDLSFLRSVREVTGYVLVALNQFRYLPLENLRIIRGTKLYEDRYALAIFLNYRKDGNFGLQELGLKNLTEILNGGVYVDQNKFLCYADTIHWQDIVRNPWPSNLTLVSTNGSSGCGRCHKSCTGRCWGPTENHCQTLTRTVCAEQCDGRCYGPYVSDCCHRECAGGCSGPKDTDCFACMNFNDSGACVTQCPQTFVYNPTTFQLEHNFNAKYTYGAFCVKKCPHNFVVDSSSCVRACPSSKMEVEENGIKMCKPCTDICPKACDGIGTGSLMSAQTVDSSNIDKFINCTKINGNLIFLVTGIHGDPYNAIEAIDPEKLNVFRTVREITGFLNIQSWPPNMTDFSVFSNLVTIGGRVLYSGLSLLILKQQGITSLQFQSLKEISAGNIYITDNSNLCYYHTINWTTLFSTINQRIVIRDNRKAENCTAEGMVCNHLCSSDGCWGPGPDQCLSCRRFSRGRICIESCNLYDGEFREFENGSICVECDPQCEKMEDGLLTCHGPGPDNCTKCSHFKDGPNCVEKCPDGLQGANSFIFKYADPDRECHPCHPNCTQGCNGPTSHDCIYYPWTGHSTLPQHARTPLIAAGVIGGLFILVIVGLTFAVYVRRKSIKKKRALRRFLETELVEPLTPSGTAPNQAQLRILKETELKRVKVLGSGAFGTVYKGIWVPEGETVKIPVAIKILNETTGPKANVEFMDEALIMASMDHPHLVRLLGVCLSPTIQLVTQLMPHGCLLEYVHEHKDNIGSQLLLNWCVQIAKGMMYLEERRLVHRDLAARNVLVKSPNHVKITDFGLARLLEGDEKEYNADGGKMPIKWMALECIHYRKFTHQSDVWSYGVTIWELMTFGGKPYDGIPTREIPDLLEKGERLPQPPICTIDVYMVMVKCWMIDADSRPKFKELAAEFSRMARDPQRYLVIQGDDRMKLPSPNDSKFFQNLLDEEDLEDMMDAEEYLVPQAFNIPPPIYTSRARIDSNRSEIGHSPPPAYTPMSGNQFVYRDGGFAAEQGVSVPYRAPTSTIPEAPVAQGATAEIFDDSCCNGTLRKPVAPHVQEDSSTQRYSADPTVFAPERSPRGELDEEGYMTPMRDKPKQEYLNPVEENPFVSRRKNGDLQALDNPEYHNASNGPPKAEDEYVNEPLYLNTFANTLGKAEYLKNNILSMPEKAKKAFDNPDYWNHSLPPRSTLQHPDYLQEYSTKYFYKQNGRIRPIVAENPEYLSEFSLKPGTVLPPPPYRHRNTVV

| SMILES | pIC50 [1] | pIC50 [2] | pIC50 [3] | pIC50 [4] | activity on CYP2C9, times better than that of the reference compound ([4]; versus Poziotinib) | Tumor volume (mm^3) (Day 21) ([5]; NCI-N87 xenograft, Mean + SEM) | T/C (%) ([5]; day 21) | TGI (%) ([5]; day 21) | pIC50 [6] | activity on CYP2D6, times better than that of the reference compound ([6]; versus Poziotinib) |
| --- | --- | --- | --- | --- | --- | --- | --- | --- | --- | --- |
| C=CC(=O)N1[C@@H]2CC[C@H]1C[C@H](Oc1cc3c(Nc4ccc(Cl)c(Cl)c4F)ncnc3cc1OC)C2 [Example 8] | 8.46 | 9.41 | 9.33 |  |  |  |  |  |  |  |
| C=CC(=O)N1[C@@H]2CC[C@H]1C[C@H](Nc1cc3c(Nc4ccc(Cl)c(Cl)c4F)ncnc3cc1OC)C2 [Example 38] | 8.52 |  | 9.28 | 4.80 | 2 times | 63 ± 10 mm^3 | 10.69% | 119.41% | 5.22 | 6 times |
| C=CC(=O)N1CCC(Oc2cc3c(Nc4ccc(Cl)c(Cl)c4F)ncnc3cc2OC)CC1 [Poziotinib, reference compound] |  |  |  | 5.10 |  |  |  |  | 6.00 |  |
